One test relates to MDA-MB-231 xenograft. The test is described as follows: MDA-MB-231 xenograft tumor model. The class given is in vivo, female BALB/c nude mice. Conditions: i.v., Day 15; for Tumor size: mean ± SEM.
A further test has as its system MDA-MB-436 cells. As to the kind of experiment: Cell viability CCK-8 assay. The class given is cell-based. The conditions noted are these: Homo sapiens, MDA-MB-436, 48 h, read-out: Antiproliferative IC50 ± SD.
The test system of test [1] is MDA-MB-231 cells. The test is described as follows: Colony formation assay. Conditions: MDA-MB-231, 0.05, 0.1, 0.5 μmol/L. The class given is cell-based, human.
For test [2], the system named is MDA-MB-231 cells. As to the kind of experiment: Apoptosis, Annexin V-AF647/7AAD flow cytometry. It counts as cell-based, human. The conditions noted are these: MDA-MB-231, 2 μmol/L, 24 h. Background: Flow cytometry measures light scatter and fluorescence of single cells or particles in a stream.
The next test deals with HCT-116 cells. The test is described as follows: Cell viability CCK-8 assay. The class given is cell-based. Conditions: Homo sapiens, HCT-116, 48 h, read-out: Antiproliferative IC50 ± SD. In general terms: Tetrazolium assays rely on reduction of a dye to a coloured formazan, in cell work by metabolically active cells.
In test [3] the test system is MDA-MB-231 cells. The test is described as follows: Cell viability CCK-8 assay. It counts as cell-based, human. Conditions: Homo sapiens, MDA-MB-231, 48 h, read-out: Antiproliferative IC50 ± SD.
Test [4] relates to MDA-MB-231 cells. As to the kind of experiment: Wound healing. The conditions noted are these: MDA-MB-231, 0.25, 0.5, 1.0 μmol/L, concentration-dependent. It counts as cell-based, human.
In a further test the test system is MCF-7 cells. The test is described as follows: Cell viability CCK-8 assay. It counts as cell-based. Conditions: Homo sapiens, MCF7, 48 h, read-out: Antiproliferative IC50 ± SD.
The next test deals with mTOR (Homo sapiens, UniProt P42345). The test is described as follows: mTOR kinase inhibition, Lance Ultra assay. It counts as biochemical. Conditions: for IC50: mTOR, IC50, mean ± SD of triplicate measurements.

The structures appear in SMILES notation. Marks after values point to notes of the source that are not given here.

A word on the T/C: it is the result in the treated group divided by that in the control group, in per cent. In general, IC50 refers to the point on the concentration scale where inhibition reaches its midpoint.

For `Oc1cccc(-c2nc(N3CCOCC3)c3oc4ncccc4c3n2)c1` [PI-103, reference compound], the T/C in the test on MDA-MB-231 xenograft (20 mg/kg, Q3D × 6) was found to be 61.36%. Further, in the test with MDA-MB-231 xenograft (20 mg/kg, Q3D × 6), the TGI is reported as 38.64 ^d %. The Tumor size in the test on MDA-MB-231 xenograft (20 mg/kg, Q3D × 6) is 256.59 ± 40.06 mm^3. In addition, the IC50 in the test with MDA-MB-436 cells was above 10000 nM; in the test with HCT-116 cells, above 10000 nM; with MDA-MB-231 cells [3], above 10000 nM; with MCF-7 cells it was 2790 ± 346 nM. Besides, in the test on MDA-MB-231 cells [1], the “colony formation ability” value is reported as “significantly inhibited”. Moreover, in the test on MDA-MB-231 cells [2], the “percentage of total apoptotic cells” value is reported as 4.47%. Further, the “anti-migration effect” value in the test with MDA-MB-231 cells [4] is reported as “significantly inhibit the migration”.
For the molecule `COc1cccc2c1C(=O)c1c(O)c3c(c(O)c1C2=O)C[C@@](O)(C(=O)CO)C[C@@H]3O[C@H]1C[C@H](N)[C@H](O)[C@H](C)O1` [Doxorubicin, reference compound], in the test on MDA-MB-231 xenograft (2.5 mg/kg, Q7D × 2), the T/C came out at 31.82%, the TGI is given as 68.18 ^d % and the Tumor size stood at 115.17 ± 32.95 mm^3. In the test on MDA-MB-231 cells [3], the half-inhibitory concentration (IC50) worked out at 75.6 nM.
`NCCC(=O)Nc1ccccc1/N=c1\cc(-c2ccc3nc(N)oc3c2)oc2ccc(F)cc12` [Compound 12k, (E)-3-amino-N-(2-((2-(2-aminobenzo[d]oxazol-6-yl)-6-fluoro-4H-chromen-4-ylidene)amino)phenyl)propanamide]: the IC50 in the test on MDA-MB-436 cells worked out at 112 ± 62.3 nM; against mTOR, 166 ± 6.3 nM; with HCT-116 cells it was 307.9 ± 2.2 nM; with MDA-MB-231 cells [3], 125 ± 5.9 nM; with MCF-7 cells it was 211 ± 87.7 nM.
On to `Nc1nc2ccc(-c3c/c(=N\c4ccccc4NC(=O)C4CCNC4)c4ccccc4o3)cc2o1` (stereo not drawn) [Compound 12i, (E)-N-(2-((2-(2-aminobenzo[d]oxazol-6-yl)-4H-chromen-4-ylidene)amino)phenyl)pyrrolidine-3-carboxamide], for which the IC50 was found to be 165 ± 8.1 nM against mTOR, 313200 ± 5.7 nM in the test with HCT-116 cells, 285 ± 425 nM in the test with MDA-MB-231 cells [3] and 1487 ± 2.8 nM in the test on MCF-7 cells.
Take `CNCCC(=O)Nc1ccccc1/N=c1\cc(-c2ccc3nc(N)oc3c2)oc2ccccc12` [Compound 12c, (E)-N-(2-((2-(2-aminobenzo[d]oxazol-6-yl)-4H-chromen-4-ylidene)amino)phenyl)-3-(methylamino)propanamide]: the IC50 in the test on MDA-MB-436 cells is 566 ± 9.1 nM; on mTOR it was 473 ± 42.4 nM; in the test on HCT-116 cells, 900.5 ± 5.5 nM; in the test on MDA-MB-231 cells [3], 104 ± 3.3 nM; in the test on MCF-7 cells it was 1316 ± 6.4 nM.
Take `NCCC(=O)Nc1ccccc1/N=c1\cc(-c2ccc3nc(N)oc3c2)oc2cc(O)ccc12` [Compound 12m, (E)-3-amino-N-(2-((2-(2-aminobenzo[d]oxazol-6-yl)-7-hydroxy-4H-chromen-4-ylidene)amino)phenyl)propanamide]: the IC50 in the test on MDA-MB-436 cells is above 10000 nM; against mTOR, 40.2 ± 1 nM; with HCT-116 cells, above 10000 nM; with MDA-MB-231 cells [3] it was above 10000 nM; with MCF-7 cells, above 10000 nM.
In the case of `NCCC(=O)Nc1ccccc1/N=c1\cc(-c2ccc3nc(N)oc3c2)oc2ccc(O)cc12` [Compound 12n, (E)-3-amino-N-(2-((2-(2-aminobenzo[d]oxazol-6-yl)-6-hydroxy-4H-chromen-4-ylidene)amino)phenyl)propanamide], the IC50 against mTOR turned out to be 26.3 ± 0.2 nM; with HCT-116 cells, 1570 ± 132 nM; in the test on MDA-MB-231 cells [3] it was 1770 ± 473 nM; in the test with MCF-7 cells, 547 ± 679 nM. Further, on mTOR (vs 12a), the “fold more potent than 12a (mTOR IC50)” value is recorded as 1.72 fold.
`CC(=O)O[C@H]1C(=O)[C@@]2(C)[C@H]([C@H](OC(=O)c3ccccc3)[C@]3(O)C[C@H](OC(=O)[C@H](O)[C@@H](NC(=O)c4ccccc4)c4ccccc4)C(C)=C1C3(C)C)[C@]1(OC(C)=O)CO[C@@H]1C[C@@H]2O` [Paclitaxel, reference compound]: the IC50 in the test on MDA-MB-231 cells [3] was determined as 3862 ± 13.2 nM.
